The results in this text go back to US10336732B2, “1-heterocyclyl isochromanyl compounds and analogs for treating CNS disorders” (Sunovion Pharmaceuticals Inc., priority 2015, dated 2019).

Structures are written as SMILES.

This experiment concerns mice. Kind of experiment: Neuropharmacological assay (SmartCube), behavioral signature of compound-treated mice. The format is in vivo. As to conditions: i.p. 15 min before behavioral test, most efficacious dose(s) of 3 doses. In a few lines:
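Mice received compound i.p. in NMP/PEG/propylene glycol vehicle at 3 doses, 15 min before testing. Video-captured behavior was algorithmically compared with a reference-drug signature database.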

Consider `FC1(F)CN[C@H]([C@H]2OCCc3ccccc32)C1` [Compound I-63, (S)-4,4-difluoro-2-((S)-isochroman-1-yl)pyrrolidine], for which the “AD: ADHD (probability that behavioral signature matches class)” value (shortened to “AD: ADHD”) is on record as “+ (LOQ ≤ + <5%)”, the “AG: analgesic (probability that behavioral signature matches class)” value (“AG: analgesic” below) was “+ (LOQ ≤ + <5%)”, the “AX: anxiolytic (probability that behavioral signature matches class)” value (shortened to “AX: anxiolytic”) was “+ (LOQ ≤ + <5%)” and the “CE: cognitive enhancer (probability that behavioral signature matches class)” value (from here on “CE: cognitive enhancer”) is “+ (LOQ ≤ + <5%)”. Moreover, the “DP: anti-depressant (probability that behavioral signature matches class)” value (“DP: anti-depressant” for short) is “+ (LOQ ≤ + <5%)”, the “HA: hallucinogen (probability that behavioral signature matches class)” value (from here on “HA: hallucinogen”) was “+ (LOQ ≤ + <5%)”, the “MS: mood stabilizer (probability that behavioral signature matches class)” value (shortened to “MS: mood stabilizer”) was “+ (LOQ ≤ + <5%)” and the “PS: anti-psychotic (probability that behavioral signature matches class)” value (shortened to “PS: anti-psychotic”) is listed as “+ (LOQ ≤ + <5%)”. The “SD: sedative hypnotic (probability that behavioral signature matches class)” value (from here on “SD: sedative hypnotic”) is reported as “+ (LOQ ≤ + <5%)”, the “UN: uncharacterized CNS activity (probability that behavioral signature matches class)” value (“UN: uncharacterized CNS activity” below) is listed as “+ (LOQ ≤ + <5%)” and the “XG: anxiogenic (probability that behavioral signature matches class)” value (from here on “XG: anxiogenic”) is listed as “+ (LOQ ≤ + <5%)”.
`FC1(F)CN[C@H]([C@@H]2OCCc3ccccc32)C1` [Compound I-64, (S)-4,4-difluoro-2-((R)-isochroman-1-yl)pyrrolidine]: the “AD: ADHD” value is given as “+ (LOQ ≤ + <5%)”, the “AG: analgesic” value is listed as “+ (LOQ ≤ + <5%)”, the “AX: anxiolytic” value is “++ (5% ≤ ++ <25%)” and the “CE: cognitive enhancer” value was “+ (LOQ ≤ + <5%)”. Besides, the “DP: anti-depressant” value is reported as “+ (LOQ ≤ + <5%)”, the “HA: hallucinogen” value is listed as “+ (LOQ ≤ + <5%)”, the “MS: mood stabilizer” value is on record as “+ (LOQ ≤ + <5%)” and the “PS: anti-psychotic” value was “+ (LOQ ≤ + <5%)”. The “SD: sedative hypnotic” value was “+ (LOQ ≤ + <5%)”, the “UN: uncharacterized CNS activity” value is on record as “+ (LOQ ≤ + <5%)” and the “XG: anxiogenic” value is “+ (LOQ ≤ + <5%)”.
On to `CC1(C)Cc2ccccc2[C@@H]([C@@H]2CCCN2)O1` [Compound I-65, (S)-2-((S)-3,3-dimethylisochroman-1-yl)pyrrolidine], for which the “AD: ADHD” value is reported as “+ (LOQ ≤ + <5%)”, the “AG: analgesic” value was “+++ (25% ≤ +++ <50%)”, the “AX: anxiolytic” value is on record as “++ (5% ≤ ++ <25%)” and the “CE: cognitive enhancer” value was “++ (5% ≤ ++ <25%)”. Besides, the “DP: anti-depressant” value is given as “++ (5% ≤ ++ <25%)”, the “HA: hallucinogen” value is on record as “+ (LOQ ≤ + <5%)”, the “MS: mood stabilizer” value is given as “+ (LOQ ≤ + <5%)” and the “PS: anti-psychotic” value is “++ (5% ≤ ++ <25%)”. Also, the “SD: sedative hypnotic” value is given as “++ (5% ≤ ++ <25%)”, the “UN: uncharacterized CNS activity” value is given as “+ (LOQ ≤ + <5%)” and the “XG: anxiogenic” value is listed as “+ (LOQ ≤ + <5%)”.
`CC1(C)Cc2ccccc2[C@H]([C@@H]2CCCN2)O1` [Compound I-66, (S)-2-((R)-3,3-dimethylisochroman-1-yl)pyrrolidine]: the “AD: ADHD” value is recorded as “+ (LOQ ≤ + <5%)”, the “AG: analgesic” value is given as “++ (5% ≤ ++ <25%)”, the “AX: anxiolytic” value is given as “++ (5% ≤ ++ <25%)” and the “CE: cognitive enhancer” value is “++ (5% ≤ ++ <25%)”. For the same compound, the “DP: anti-depressant” value was “++ (5% ≤ ++ <25%)”, the “HA: hallucinogen” value is “+ (LOQ ≤ + <5%)”, the “MS: mood stabilizer” value is given as “+ (LOQ ≤ + <5%)” and the “PS: anti-psychotic” value is listed as “+++ (25% ≤ +++ <50%)”. Besides, the “SD: sedative hypnotic” value is reported as “+ (LOQ ≤ + <5%)”, the “UN: uncharacterized CNS activity” value is “++ (5% ≤ ++ <25%)” and the “XG: anxiogenic” value is “+ (LOQ ≤ + <5%)”.
In the case of `CC1(C)Cc2ccccc2[C@@H]([C@H]2CCCN2)O1` [Compound I-67, (R)-2-((S)-3,3-dimethylisochroman-1-yl)pyrrolidine], the “AD: ADHD” value was “+ (LOQ ≤ + <5%)”, the “AG: analgesic” value is given as “+ (LOQ ≤ + <5%)”, the “AX: anxiolytic” value is “+ (LOQ ≤ + <5%)” and the “CE: cognitive enhancer” value was “+ (LOQ ≤ + <5%)”. For the same compound, the “DP: anti-depressant” value was “+ (LOQ ≤ + <5%)”, the “HA: hallucinogen” value is on record as “+ (LOQ ≤ + <5%)”, the “MS: mood stabilizer” value is on record as “+ (LOQ ≤ + <5%)” and the “PS: anti-psychotic” value was “+ (LOQ ≤ + <5%)”. The “SD: sedative hypnotic” value is reported as “+ (LOQ ≤ + <5%)”, the “UN: uncharacterized CNS activity” value was “+ (LOQ ≤ + <5%)” and the “XG: anxiogenic” value is “+ (LOQ ≤ + <5%)”.
For `CC1(C)Cc2ccccc2[C@H]([C@H]2CCCN2)O1` [Compound I-68, (R)-2-((R)-3,3-dimethylisochroman-1-yl)pyrrolidine], the “AD: ADHD” value is recorded as “+ (LOQ ≤ + <5%)”, the “AG: analgesic” value is recorded as “+ (LOQ ≤ + <5%)”, the “AX: anxiolytic” value was “+ (LOQ ≤ + <5%)” and the “CE: cognitive enhancer” value is on record as “+ (LOQ ≤ + <5%)”. The “DP: anti-depressant” value is recorded as “+ (LOQ ≤ + <5%)”, the “HA: hallucinogen” value was “+ (LOQ ≤ + <5%)”, the “MS: mood stabilizer” value is “+ (LOQ ≤ + <5%)” and the “PS: anti-psychotic” value is recorded as “+ (LOQ ≤ + <5%)”. In addition, the “SD: sedative hypnotic” value is recorded as “+ (LOQ ≤ + <5%)”, the “UN: uncharacterized CNS activity” value was “+ (LOQ ≤ + <5%)” and the “XG: anxiogenic” value is “+ (LOQ ≤ + <5%)”.
For the compound `CN1CCC[C@H]1[C@@H]1OCCc2cc(F)ccc21` [Compound I-69, (S)-2-((R)-6-fluoroisochroman-1-yl)-1-methylpyrrolidine], the “AD: ADHD” value is “+ (LOQ ≤ + <5%)”, the “AG: analgesic” value is listed as “+++ (25% ≤ +++ <50%)”, the “AX: anxiolytic” value was “++ (5% ≤ ++ <25%)” and the “CE: cognitive enhancer” value was “++ (5% ≤ ++ <25%)”. Also, the “DP: anti-depressant” value is “++ (5% ≤ ++ <25%)”, the “HA: hallucinogen” value is “+ (LOQ ≤ + <5%)”, the “MS: mood stabilizer” value is on record as “+ (LOQ ≤ + <5%)” and the “PS: anti-psychotic” value is “++ (5% ≤ ++ <25%)”. The “SD: sedative hypnotic” value was “+ (LOQ ≤ + <5%)”, the “UN: uncharacterized CNS activity” value is reported as “+ (LOQ ≤ + <5%)” and the “XG: anxiogenic” value is given as “+ (LOQ ≤ + <5%)”.
For `CCN1CCC[C@H]1[C@@H]1OCCc2cc(F)ccc21` [Compound I-70, (S)-1-ethyl-2-((R)-6-fluoroisochroman-1-yl)pyrrolidine], the “AD: ADHD” value is listed as “+ (LOQ ≤ + <5%)”, the “AG: analgesic” value was “++ (5% ≤ ++ <25%)”, the “AX: anxiolytic” value is listed as “+++ (25% ≤ +++ <50%)” and the “CE: cognitive enhancer” value is listed as “+ (LOQ ≤ + <5%)”. Besides, the “DP: anti-depressant” value is “++ (5% ≤ ++ <25%)”, the “HA: hallucinogen” value was “+ (LOQ ≤ + <5%)”, the “MS: mood stabilizer” value is recorded as “+ (LOQ ≤ + <5%)” and the “PS: anti-psychotic” value is “+ (LOQ ≤ + <5%)”. For the same compound, the “SD: sedative hypnotic” value is “+ (LOQ ≤ + <5%)”, the “UN: uncharacterized CNS activity” value is recorded as “+ (LOQ ≤ + <5%)” and the “XG: anxiogenic” value is recorded as “+ (LOQ ≤ + <5%)”.
For the compound `c1ccc2c(c1)CCO[C@@H]2[C@@H]1CCCCN1` [Compound I-71, (S)-2-((S)-isochroman-1-yl)piperidine], the “AD: ADHD” value is “+ (LOQ ≤ + <5%)”, the “AG: analgesic” value is listed as “+ (LOQ ≤ + <5%)”, the “AX: anxiolytic” value is listed as “+++ (25% ≤ +++ <50%)” and the “CE: cognitive enhancer” value is given as “++ (5% ≤ ++ <25%)”. The “DP: anti-depressant” value is given as “++ (5% ≤ ++ <25%)”, the “HA: hallucinogen” value is given as “+ (LOQ ≤ + <5%)”, the “MS: mood stabilizer” value was “++ (5% ≤ ++ <25%)” and the “PS: anti-psychotic” value was “++ (5% ≤ ++ <25%)”. Besides, the “SD: sedative hypnotic” value was “+ (LOQ ≤ + <5%)”, the “UN: uncharacterized CNS activity” value is “+ (LOQ ≤ + <5%)” and the “XG: anxiogenic” value is on record as “+ (LOQ ≤ + <5%)”.
